Values joined by “and” are separate entries in the source; they are usually repeats but may differ in a detail not shown here. Identical values can stand only once. “Also recorded” adds a separate entry of the source.
What was measured:
[1] = system: chick chorioallantoic membrane (CAM); assay: Chick chorioallantoic membrane (CAM) assay, CAM area; details: for LOAEL / LOAEL (Molar) / NOAEL (Molar) / LOAEL (mg/ml): day 5-6 CAMs, 24 hours; for minimal effective concentration: Gallus gallus, 24 h, read-out: lowest effective dose on CAM area; for effect on CAM area: 5e-11M
Experimental: The chick chorioallantoic membrane (CAM) assay is perhaps the most widely used assay for screening anti-angiogenic or growth inhibitory compounds (see, e.g. Ribatti et al., Int. J. Dev. Biol. 40:1189-1197 (1996)). Cell proliferation and angiogenesis were evaluated by measuring CAM area and BrdU labeling using the CAM assay as modified by Melkonian et al., J. Exp. Zool. (2001), in review. Fertilized chicken eggs were purchased from Hy-Line International (Lakeview, CA), then incubated at 37° C. at 85-90% relative humidity throughout the experiment. Experiments were done to evaluate cell proliferation, angiogenesis, and vascularization in CAMs between days 5 and 6 after fertilization. Albumin (2.5-3.0 cc) was removed on the fourth day after fertilization to drop the embryo away from the shell. Windows were then made in shells, and sealed with transparent tape to allow subsequent access to the CAM for experimental treatment. 200 μl of either EBSS-H or different concentrations of pure chemicals were added to the surface of each CAM at 10 AM on the fifth day after fertilization. A sham control group in which the window was opened and resealed was also included in each experiment. In all cases, the following five concentrations of test reagents were used, 5×10^−3 M, 5×10^−5 M, 5×10^−7M, 5×10^−9 M and 5×10^−11M. For 2-ethylpyridine and 3-ethylpyridine additional concentrations of 5×10^−12M, 5×10^−13M, 5×10^−14 M and 5×10^−15 M were used. For nicotine and nornicotine, concentrations of 5×10^−4 M, 5×10^−6 M, 5×10^−8 M and 5×10^−10 M were also used. Development was terminated at 10 AM on the sixth day after fertilization by fixing the embryo and the CAM with 3% glutaraldehyde in 0.1M cacodylate buffer (pH 7.4) for 2 hours at room temperature. A small volume of fixative was also injected under the CAM. The CAMs were later dissected from eggs, post-fixed in the same fixative for 24 hours at room temperature, then thoroughly rinsed in PBS.
At least 6 CAMs were used in each control and experimental group. Parameters which measure aspects of cell proliferation, angiogenesis, and vacularization were quantified for each CAM. These parameters include: (1) for cell proliferation—CAM area, BrdU labeling of nuclei; (2) for angiogenesis—blood vessel pattern, blood vessel area, blood vessel diameter, and blood vessel branching; (3) for vascularization—density of angiogenic clusters. The area of each CAM was measured by placing the CAMs in PBS in a Petri dish under a Wild-M5A dissecting microscope (Max ERB instrument Co., Burbank, CA), then measuring the longest and shortest length of each CAM with a ruler to the precision of 0.5 mm. The data were recorded into Excel spreadsheet. CAM area was calculated using the formula:
where A=longest length, B=longest width, π=3.14.
Means and standard deviations were then calculated for each control and treatment group. The treated group means were used to compare with control means to determine the effect of each chemical on CAM growth.
On the fifth day after fertilization, either EBSS-H or different concentrations of test chemicals were added to each CAM. A sham group in which windows were opened and resealed without adding any solution was also included to determine if the vehicle EBSS-H had any effect on CAM area. Development was terminated 24 hours later, and CAMs were measured as described in Materials and Methods.

nuclei of day 5 CAMs = assay: BrdU labeling of CAMs (cell proliferation); assay type: in vivo, chick
Experimental: Eight hours after the initial EBSS-H or chemical treatment on day 5 after fertilization, […] BrdU (Sigma, St. Louis, Mo.) were added to each CAM surface. Another 55 minutes after the BrdU treatment, the development of the CAMs was terminated by transferring the embryos and CAMs into a −20° C. freezer for 2-3 minutes. Embryos and CAMs were then fixed at −20° C. in 70% ethanol containing 50 mM glycine buffer, pH 2.0 for 1.5 hours. CAMs were then dissected out of the eggs, washed in PBS and dehydrated in 30%, 50%, 75%, 90% and 100% ethanol series. Dehydrated CAM tissues were further processed in Hypercenter II Tissue Processing System (Shandon Inc., Pittsburgh, Pa.), then embedded in paraffin using Sakura Tissue-TE (Shandon Inc., Pittsburgh, Pa.). Paraffin Sections were cut using a S20 Spencer microtome (Labequip, American Optical Corp., Ontario, Canada), and were mounted on Superfrost/plus glass slides (Fisher Scientific, Tustin, CA). Sections were deparaffinized with 3 changes of Hemo-De for 15 minutes each, 2 changes of 100% ethanol for 5 minutes each, then rehydrated in PBS. […] Images were recorded using a Spot digital camera-SP401-115 (Diagnostic Instruments, Sterling Heights, MI) and processed and montaged using Adobe Photoshop (San Jose, Calif.). […]

[2] = system: blood vessels of the chick chorioallantoic membrane (CAM); assay: CAM angiogenesis: blood vessel area, pattern formation, capillary plexus; assay type: in vivo
Experimental: (2001), in review. […] The surface of each CAM was further dissected out of the CAM pocket in PBS. CAMs were then flattened with 18×18-1.5 Fisherbrand microscope cover slip (Fisher Scientific, Pittsburgh, Pa.) in Fisherbrand 60×15 mm standard sterile polystyrene petri dish (Fisher Scientific, Pittsburgh, Pa.). […] Pattern formation was evaluated blindly using video image montages projected on a computer monitor. Images were ranked on a scale of 0 to 3, with 0 being similar to control CAMs and 3 being most dissimilar from controls. The area occupied by major blood vessels in control and chemically treated CAMs was measured in digitalized images projected on a computer monitor using NIH image. Boxes (2.4 c 1.98 mm) were placed in each corner of each CAM image, which had been processed to visualize the major blood vessels. The percentage of pixels occupied by the blood vessels was quantified in each box and an average percentage was computed from the four boxes measured from each CAM. These values were used to compute means and standard deviations for each group. Blood vessel diameter and branching were measured in images projected on a computer monitor using NIH Image software. Density of angiogenic clusters was evaluated in toluidine blue stained histological sections that were digitalized and projected on a computer monitor.

| Structure (SMILES) | LOAEL ([1]; CAM area) [mg/mL] | LOAEL (Molar) ([1]; CAM area) [µM] | NOAEL (Molar) ([1]; CAM area) [nM] | minimal effective concentration [1] | further results |
| --- | --- | --- | --- | --- | --- |
| c1ccncc1 [Pyridine, pyridine, reference compound] | 0.00396 | 50 | 500 | 50 µM and 3.96 µg/mL | – |
| CCc1ccccn1 [2-ethylpyridine] | 5.36e-10 | 5e-06 | 0.0005 | 5e-06 µM and 5.4e-07 µg/mL | CAM size compared with control groups ([1]; 5e-3M): significantly smaller; lowest effective dose lower than that of the single pyridine ring ([1]; CAM area): 10 million; CAM growth / size compared with control ([1]; dose not stated): significantly inhibited; incorporation of BrdU into nuclei (nuclei of day 5 CAMs; 5e-11, eight hours): significantly less incorporation of BrdU; major blood vessel pattern formation ([2]; 5e-3M): disturbance in major blood vessel pattern formation; dendritic branching pattern ([2]; all doses tested): disrupted; formation of the capillary plexus ([2]; in vivo): significantly inhibited; also recorded: failed to form; dose at which blood vessel area was significantly decreased ([2]; vs EBSS control, exposed day 5, evaluated day 6): 50 pM |
| c1cncc([C@@H]2CCCN2)c1 [nornicotine, 3-(1-pyrrolidin-2-yl)pyridine] | 0.0074 | 50 | 5000 | 50 µM and 7.4 µg/mL | effect on CAM area [1]: significant stimulatory effect |
| c1cc(-c2ccncc2)ccn1 [4,4-bipyridine] | 0.0781 | 500 | 50000 | 500 µM and 78.1 µg/mL | – |
| Cc1cccnc1 [3-methylpyridine] | – | 0.005 | 0.05 | 0.005 µM and 0.000466 µg/mL | LOAEL (mg/ml) ([1]; CAM area): 4.66e−7 mg/lml mg/ml |
| Cc1ccccn1 [2-methylpyridine] | – | 0.005 | 0.05 | 0.005 µM and 0.000466 µg/mL | LOAEL (mg/ml) ([1]; CAM area): 4.66e−7 mg/lml mg/ml; incorporation of BrdU into nuclei (nuclei of day 5 CAMs; 5e-9, eight hours): significantly less incorporation of BrdU |
| Cc1ccnc(C)c1 [2,4-dimethylpyridine] | 0.00536 | 50 | 500 | 50 µM and 5.36 µg/mL | – |
| Cn1cccc1-c1cccnc1 [b-nicotyrine, 3-(1-methylpyrrol-2-yl)pyridine] | 7.9e-05 | 0.5 | 5 | 0.5 µM and 0.079 µg/mL | effect on CAM area [1]: slight increase |
| C=Cc1ccncc1 [4-ethenylpyridine] | 0.00526 | 50 | 500 | 50 µM and 5.26 µg/mL | – |
| Cc1cccnc1C [2,3-dimethylpyridine] | 0.00536 | 50 | 500 | 50 µM and 5.36 µg/mL | – |
| CN1CCCC1c1cccnc1 (stereo not drawn) [nicotine, 1-methyl-2-(3-pyridyl)pyrrolidine] | 0.081 | 500 | 50000 | 500 µM and 81 µg/mL | effect on CAM area [1]: significant stimulatory effect |
| Cc1cc(C)nc(C)c1 [2,4,6-trimethylpyridine] | 0.0061 | 50 | 500 | 50 µM and 6.1 µg/mL | – |
